“Also recorded” adds a separate entry of the source.
Experiments:
4T1 breast cancer = assay: Murine lung metastasis models (4T1 breast cancer); type: in vivo, mouse
Description: Recent advances in cancer immunotherapy have improved patient survival. However, only a minority patients with pulmonary metastatic disease responds to treatment with checkpoint inhibitors. As an alternate approach, we have tested the ability of systemically administered 1V270, a toll-like receptor 7 (TLR7) agonist conjugated to a phospholipid, to inhibit lung metastases in two variant murine 4T1 breast cancer models, as well as in B16 melanoma, and Lewis lung c models.

[1] = system: CD63-Tluc-CD9-EmGFP THP-1 reporter cells; assay: CD63 Tluc-CD9 EmGFP THP-1 reporter cell assay (EV/exosome release); type: cell-based, human; conditions: 48 hours incubation
Experimental: (§1) All these analogs were evaluated for induction of IL-12 cytokine at 10 μM, followed by dose response IL-12 induction for selected analogs. These analogs were also evaluated for exosome release by quantitating EV release in the supernatant post 48 hours incubation with CD63-Tluc-CD9-EmGFP THP-1 reporter cells.
In the HTS using CD63-Tluc-CD9EmGFP reporter cells (CD63 HTS), PMA (10 ng/ml) was used as a positive control (Shpigelman et al., 2021) and 0.5% DMSO was used as negative control (vehicle, Veh). Briefly, the harvested cells were resuspended in assay media containing 10% exosome-depleted […] (#A2720801, Thermo Fisher Scientific) and plated at 2×10^5 cells/mL (50 μL/well of 384-well plates) (#3674, Corning). Test compounds were added at a final concentration of 10 μM to cells and incubated for 48 hours at 37° C. Subsequently, the plate was centrifuged, supernatant (25 μL) was transferred, and chemiluminescent was measured as recombinant luciferase activity (RLU) after 10 minutes incubation with TurboLuc assay reagent (TurboLuc™ One-Step Glow Assay kit, Thermo Fisher Scientific). The response that measures activation and subsequent release of EVs was calculated using the following formula; % response=100×(compound RLU−average Veh RLU)/(average PMA RLU−average Veh RLU). The viability of cells was assessed using PrestoBlue reagent (Thermo Fisher Scientific). Briefly, PrestoBlue reagent (2.5 μl) was added to the remaining cells and incubated for 30 minutes at room temperature, followed by fluorescence readout at (Ex 560 nm/Em 590 nm) which was normalized to fluorescence data of the Veh wells within the plate to obtain “% viability” calculated as 100×(compound fluorescence/average Veh fluorescence).
CD63 Tluc-CD9 EmGFP THP-1 reporter cell assay. CD63 Tluc CD9 EmGFP THP-1 reporter cell (designated as CD63 Tluc reporter cells) were incubated with 10 μM test compounds, ION (1 μM), or 0.5% DMSO (negative control) in the RPMI 1640 supplemented with exosome-depleted FBS at 5×10^4 cells in 200 μL/well for a 96-well plate for 48 hours at 37° C. Subsequently, the plate was centrifuged, the supernatant was transferred, and chemiluminescence was measured by TurboLuc™ Luciferase One-Step Glow Assay Kit. The response that measures activation and subsequent release of EVs was calculated using the following formula; % response=100×(compound RLU−average Veh RLU)/(average PMA RLU−average Veh RLU).

mBMDCs [2] = assay: IL-12 induction in mBMDCs (ELISA); type: cell-based, mouse; conditions: 10 μM / dose response
Experimental: as §1
mBMDCs (10^5 cells/200 μL/well) were plated in wells of 96-well plates and treated with test compound (5 μM or 10 μM) or vehicle (0.5% DMSO) overnight.

mBMDCs [3] = assay: Costimulatory molecule expression on mBMDCs (flow cytometry); type: cell-based, mouse; conditions: 634 10 μM, ION 1 μM, MPLA 1 μg/mL overnight, vs Veh
Experimental: FIGS. 26A-26D. Flow cytometric analysis for costimulatory molecules on mBMDCs. For costimulatory molecules on mBMDCs, mBMDCs (10^6 cells/mL) were incubated with 634 (10 μM), ION (1 μM), and MPLA (1 μg/mL) for 20-24 hours. 0.5% DMSO was used as a vehicle. After removing the supernatant, cells were washed with the stain buffer and incubated with anti-mouse CD16/32 antibody for blocking FcR. Cells were stained with an antibody cocktail with anti-CD86 (A), anti-CD80 (B), anti-MHC class II (C), and anti-CD40 (D) antibodies for 30 minutes at 4° C. Cells were then washed and stained with DAPI (4′,6-diamino-2phenylindole) for 10 minutes at room temperature to exclude dead cells (DAPI^high) from the analysis. Data were acquired using MACSQuant Analyzer 10 (Miltenyi Biotec, Germany) and analyzed with FlowJo (version 10.8.1).
mBMDCs (10^5 cells/200 μL/well) were treated with a test compound (10 μM) or Veh (0.5% DMSO) overnight and then the costimulatory molecule expression on mBMDCs was evaluated using flow cytometry. The cells were stained with antibodies for CD11c, CD80, CD83, CD86, CD40, and MHC class II. Dead cells (DAPI high) were excluded from the analysis. Percent positive population of CD80, CD83, CD86, CD40, or MHC class II in the gated CD11c population were analyzed.
Costimulatory Molecule Expression Analysis. mBMDCs (10^6 cells/mL) were incubated with 10 μM compound, 1 μM lonomycin and 1 μg/mL MPLA for 20 to 24 hours. 0.5% DMSO was used as vehicle. Cells were incubated with anti-mouse CD16/32 antibody for blocking FcR and stained with anti-CD11c, anti-CD40, […], anti-CD83, […], or anti-MHC class II antibodies for 30 minutes at 4° C. Cells were stained with 4′,6-diamino-2-phenylindole (DAPI) for 10 minutes at RT. Data were acquired using MACSQuant Analyzer 10 (Miltenyi Biotec, Germany) and analyzed with FlowJo (version 10.8.1, Becton Dickinson, Ashland, OR)).

CCCCCCCC/C=C\CCCCCCCC(=O)OCC(COP(=O)(O)OCCNC(=O)c1ccc(Cn2c(=O)[nH]c3c(N)nc(OCCOC)nc32)cc1)OC(=O)CCCCCCC/C=C\CCCCCCCC (stereo not drawn) [1V270]
lung metastases / tumor cell colonization in the lungs (4T1 breast cancer; 4T1 breast cancer models, systemic administration): inhibited lung metastases; also recorded: inhibited colonization by tumor cells in the lungs
toxic effects (4T1 breast cancer; compared to the unconjugated agonist): minimal toxic effects
lung metastasis after intranasal administration (4T1 breast cancer; intranasal administration): suppressed lung metastasis

Cc1ccccc1-c1cncc(-c2nnc(-c3cccc4ccccc34)o2)c1 [2C183]
exosome (EV) release in CD63 reporter THP-1 cells [1]: enhanced exosome release in CD63 reporter THP-1 cells
IL-12 induction (mBMDCs [2]): induced IL-12 in BMDCs

Cc1cccc(-c2cncc(-c3nnc(-c4cccc5ccccc45)o3)c2)c1 [2C185]
exosome (EV) release in CD63 reporter THP-1 cells [1]: enhance exosome release; also recorded: enhanced exosome release in CD63 reporter THP-1 cells
IL-12 induction (mBMDCs [2]): enhance exosome release and IL-12 induction; also recorded: induced IL-12 in BMDCs

C[C@H](CCC(=O)O)C[C@H](C)C[C@H](C)C(=O)/C=C(\O)[C@H](C)C[C@H](C)C/C=C/[C@@H](C)[C@@H](O)[C@@H](C)[C@@H](O)C[C@@H]1CC[C@@](C)([C@H]2CC[C@@](C)([C@@H](C)O)O2)O1 [ION, ionomycin, reference compound]
CD80 expression on mBMDCs (mBMDCs [3]): increased CD86 and CD80 expression on mBMDCs
CD86 expression on mBMDCs (mBMDCs [3]): increased CD86 and CD80 expression on mBMDCs
